We go through 13 compounds from patent US20260356820A1, “Pyrrolidine and Imidazolidine Based DNA Polymerase Theta Inhibitors and Use Thereof” (Thomas Jefferson University, priority 2022, published 2026).

In the test the target is T1, human Polq polymerase domain (Homo sapiens, UniProt O75417).
T1 sequence (O75417 1792-2590): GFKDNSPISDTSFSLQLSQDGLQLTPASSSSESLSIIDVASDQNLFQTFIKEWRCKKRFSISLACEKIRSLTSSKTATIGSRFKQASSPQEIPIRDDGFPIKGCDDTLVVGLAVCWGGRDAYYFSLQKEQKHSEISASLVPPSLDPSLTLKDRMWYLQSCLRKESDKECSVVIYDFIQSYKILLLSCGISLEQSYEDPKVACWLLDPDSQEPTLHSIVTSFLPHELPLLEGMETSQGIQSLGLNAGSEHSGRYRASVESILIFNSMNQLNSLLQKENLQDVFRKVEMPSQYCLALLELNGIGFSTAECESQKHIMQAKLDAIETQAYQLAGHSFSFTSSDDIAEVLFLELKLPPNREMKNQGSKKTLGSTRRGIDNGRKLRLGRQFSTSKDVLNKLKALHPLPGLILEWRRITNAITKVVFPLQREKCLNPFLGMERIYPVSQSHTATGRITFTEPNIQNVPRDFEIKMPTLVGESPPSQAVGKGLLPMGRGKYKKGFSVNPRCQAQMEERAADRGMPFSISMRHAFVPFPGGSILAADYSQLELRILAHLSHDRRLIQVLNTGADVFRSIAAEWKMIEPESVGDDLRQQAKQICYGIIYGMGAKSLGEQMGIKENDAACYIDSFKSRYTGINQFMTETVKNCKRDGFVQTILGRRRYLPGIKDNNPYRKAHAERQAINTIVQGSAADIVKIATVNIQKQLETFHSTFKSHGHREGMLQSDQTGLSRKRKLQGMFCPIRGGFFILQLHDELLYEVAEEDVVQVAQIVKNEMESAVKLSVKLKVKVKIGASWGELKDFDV
Briefly: Cy5 fluorescence assay of Polq polymerase domain inhibition. Format: biochemical. Here is the method: The following Cy5 fluorescence assay was used to measure the ability of compounds to inhibit Polq polymerase domain in vitro. The fluorescent based assay was performed as follows: 60 nM of the pre-annealed primer-template containing a 5′ Cy5 fluorophore conjugated template strand (SEQ ID NO:3: 5′-/5Cy5/[…]-3′), a downstream complementary oligo conjugated with a 3′ Blackhole quencher (SEQ ID NO:4: 5′-CTAAGCTCACAGTG/3IAbRQSp/-3′) and a primer strand (SEQ ID NO:5: 5′-CTGTCCTGCATGATG-3′) was mixed with 50 uM 2′-deoxyribonucleoside triphosphates (dNTPs), 0.1 mg/mL Bovine serum albumin (BSA), 0.01% NP-40, 10% glycerol, 1 mM dithiothreitol (DTT), 10 mM MgCl2, 25 mM TrisHCl pH 7.8 in the presence of 2.5% DMSO with or without various concentrations (7-point dilution series) of Polq small molecule inhibitors represented by Formula I at 37 °C in a volume of 40 μL.

[1] abbreviates: 5 nM Polq polymerase domain (residues 1792-2590), 60 nM primer-template, 50 uM dNTPs, 37 °C, 18 min, read-out: IC50 (nM) Polq.

Read-outs that look alike come from different tables or passages of the source.

Turning to `CN(C(=O)Oc1c(N2CCN(CCN3CCOCC3)C2=O)cc(C(F)(F)F)cc1C(F)(F)F)c1ccc(F)cc1` [Example 1, 2-(3-(2-morpholinoethyl)-2-oxoimidazolidin-1-yl)-4,6-bis(trifluoromethyl)phenyl (4-fluorophenyl)(methyl)carbamate], half-maximal inhibition (IC50) required 12 nM.
Regarding `CC(=O)N1CCN(CCN2CCN(c3cc(C(F)(F)F)cc(C(F)(F)F)c3OC(=O)N(C)c3ccc(F)cc3)C2=O)CC1` [Example 2, 2-(3-(2-(4-acetylpiperazin-1-yl)ethyl)-2-oxoimidazolidin-1-yl)-4,6-bis(trifluoromethyl)phenyl (4-fluorophenyl)(methyl)carbamate], it took 4.5 nM to reach half-maximal inhibition (IC50).
Same read-out and setting: the figure for `CN(C(=O)Oc1c(N2CCN(CCN3CCC(C#N)CC3)C2=O)cc(C(F)(F)F)cc1C(F)(F)F)c1ccc(F)cc1` [Example 3, 2-(3-(2-(4-cyanopiperidin-1-yl)ethyl)-2-oxoimidazolidin-1-yl)-4,6-bis(trifluoromethyl)phenyl (4-fluorophenyl)(methyl)carbamate] is 6 nM; for `CN(C(=O)Oc1c(N2CCNC2=O)cc(C(F)(F)F)cc1C(F)(F)F)c1ccc(F)cc1` [Example 4, 2,4-bis(trifluoromethyl)-6-(2-oxoimidazolidin-1-yl)phenyl (4-fluorophenyl)(methyl)carbamate] it is 3.4 nM.
In the case of `CN1CCN(c2cc(C(F)(F)F)cc(C(F)(F)F)c2OC(=O)N(C)c2ccc(F)cc2)C1=O` [Example 5, 2,4-bis(trifluoromethyl)-6-(3-methyl-2-oxoimidazolidin-1-yl)phenyl (4-fluorophenyl)(methyl)carbamate], the IC50 – broadly, the concentration that gives 50% inhibition – under setting [1] came to 6 nM.
Take `CN(C(=O)Oc1c(N2CCNC2=O)cc(C(F)(F)F)cc1C(F)(F)F)c1ccc(F)c(Cl)c1F` [Example 7, 2,4-bis(trifluoromethyl)-6-(2-oxoimidazolidin-1-yl)phenyl (3-chloro-2,4-difluorophenyl)(methyl)carbamate]: half-maximal inhibition (IC50) required 4 nM.
`CN1CCN(c2cc(C(F)(F)F)cc(C(F)(F)F)c2OC(=O)N(C)c2ccc(F)c(Cl)c2F)C1=O` [Example 8, 2,4-bis(trifluoromethyl)-6-(3-methyl-2-oxoimidazolidin-1-yl)phenyl (3-chloro-2,4-difluorophenyl)(methyl)carbamate] yielded a half-inhibitory concentration (IC50) of 3.4 nM.
Same read-out and setting: to `CN(C(=O)Oc1c(N2CCNC2=O)cc(C(F)(F)F)cc1C(F)(F)F)c1cc(Cl)c(F)cc1F` [Example 9, 2,4-bis(trifluoromethyl)-6-(2-oxoimidazolidin-1-yl)phenyl (5-chloro-2,4-difluorophenyl)(methyl)carbamate] belongs 21 nM; to `CN(C(=O)Oc1c(N2CCCC2=O)cc(C(F)(F)F)cc1C(F)(F)F)c1ccc(F)cc1` [Example 10, 2,4-bis(trifluoromethyl)-6-(2-oxopyrrolidin-1-yl)phenyl (4-fluorophenyl)(methyl)carbamate], 21 nM.
For the compound `CN(C(=O)Oc1c(N2CCCC2)cc(C(F)(F)F)cc1C(F)(F)F)c1ccc(F)cc1` [Example 11, 2,4-bis(trifluoromethyl)-6-(pyrrolidin-1-yl)phenyl 4-fluorophenylmethylcarbamate], the IC50 under setting [1] was determined as 15 nM.
As to `Cc1cc(C(F)(F)F)cc(N2C[C@H](O)CC2=O)c1OC(=O)N(C)c1ccc(F)cc1` [Example 12, (R)-2-(4-hydroxy-2-oxopyrrolidin-1-yl)-6-methyl-4-(trifluoromethyl)phenyl (4-fluorophenyl)(methyl)carbamate], the IC50 is 4.4 nM.
Consider `Cc1cc(C(F)(F)F)cc(N2CCNC2=O)c1OC(=O)N(C)c1ccc(F)cc1` [Example 13, 2-methyl-6-(2-oxoimidazolidin-1-yl)-4-(trifluoromethyl)phenyl(4-fluorophenyl)(methyl)carbamate], for which the 50% inhibitory concentration (IC50) amounted to 29 nM.
For `Cc1cc(C(F)(F)F)cc(N2CCNC2=O)c1OC(=O)N(C)c1ccc(F)c(Cl)c1` [Example 14, 2-methyl-6-(2-oxoimidazolidin-1-yl)-4-(trifluoromethyl)phenyl (3-chloro-4-fluorophenyl)(methyl)carbamate], the IC50 stood at 45 nM.
